From US6033669A, “Methods for generating cytotoxic T cells and treatment of diseases thereby” (priority 1992, dated 2000)
Like-named read-outs stand apart in the source and are kept apart here.

Columns and labels:
H-2D^b = molecular target: T1, H-2D^b (Mus musculus, UniProt P01899); assay: MHC-1 upregulation on RMA-S cells (D^b); type: cell-based, murine; conditions: RMA-S cells with peptide NP366-374 (50 μM), 6 h; FIG. 8
T1 sequence (P01899 25-362): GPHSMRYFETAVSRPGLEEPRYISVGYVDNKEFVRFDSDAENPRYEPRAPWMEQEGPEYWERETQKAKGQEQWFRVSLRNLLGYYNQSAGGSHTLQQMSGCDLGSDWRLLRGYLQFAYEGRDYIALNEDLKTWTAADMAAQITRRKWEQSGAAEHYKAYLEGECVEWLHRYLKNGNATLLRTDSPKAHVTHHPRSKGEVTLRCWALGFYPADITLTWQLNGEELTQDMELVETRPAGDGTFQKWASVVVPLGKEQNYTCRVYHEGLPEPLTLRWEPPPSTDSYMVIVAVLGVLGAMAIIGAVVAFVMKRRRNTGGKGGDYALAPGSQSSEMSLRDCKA
T1 sequence (P01887 21-119 partner): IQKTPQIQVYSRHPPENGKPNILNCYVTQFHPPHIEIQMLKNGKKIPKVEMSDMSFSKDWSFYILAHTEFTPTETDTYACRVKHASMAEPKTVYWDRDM

RMA-S cells = assay: Membrane recycling of glycopeptide after pronase treatment; type: cell-based; conditions: pronase treated RMA-S cells, 37° C.; data not shown
Experimental: Panel A: RMA-s cells were incubated for 24 hours at 26° C. to induce expression of empty D^b MHC-1 chains at the cell surface, and at 37° C., and stained for D^b expression. Panel B: Removal of D^b expression by pronase treatment of RMA-S cells, preincubated at 26° C. Pronase treatment for 2 h and 4 h. D^b removal is complete at 4 h. Panels C and E: 26° C. induced RMA-S cells were treated with the glycopeptides Gal2 -CSG11 (panel C) or Gal2 CAS10 (panel E), 300 μM for 2 h at 37° C., washed and stained for Gal2 expression. Panels D and F: Glycopeptide treated RMA-S cells as in panels C and E were pronase treated to remove Db and glycopeptide expression, washed and further incubated at 37° C. to allow re-expression of glycopeptides and stained for Gal2 expression.
The capacity of the conjugate to be recycled may be assessed by incubating the cells (with bound conjugate) at 37° C. whereupon the glycopeptide will internalise. The temperature may then be lowered and the cells treated with a proteolytic enzyme (e.g. Pronase) to strip off exposed peptide/carbohydrate conjugate. On reheating, recycled conjugate may be detected by probing for the Gal2 epitope using the anti-Gal2 antibody.
Described in FIGS. 10D and F.

EL4 and RMA-S cells = type: cell-based, mice
[1] = system: pep 9(PR8)-coated RMA target cells; assay: Kinetics of CTL activity after one s.c. injection of peptide (51Cr release); type: in vivo, mice; conditions: primed once with 100 μg
[2] = 100 μg s.c., restimulated with 5 μM in vitro
[3] = priming 1 μg, restimulation 0.05 μM, effector:target 20:1
[4] = priming 1 μg, restimulation 0.05 μM, effector:target 40:1
[5] = priming 1 μg, restimulation 5.00 μM, effector:target 20:1
[6] = priming 1 μg, restimulation 5.00 μM, effector:target 40:1
[7] = priming 10 μg, restimulation 0.05 μM, effector:target 20:1
[8] = priming 10 μg, restimulation 0.05 μM, effector:target 40:1
[9] = priming 10 μg, restimulation 5.00 μM, effector:target 20:1
[10] = priming 10 μg, restimulation 5.00 μM, effector:target 40:1
[11] = priming 100 μg, restimulation 0.05 μM, effector:target 20:1
[12] = priming 100 μg, restimulation 0.05 μM, effector:target 40:1
[13] = priming 100 μg, restimulation 5.00 μM, effector:target 20:1
[14] = priming 100 μg, restimulation 5.00 μM, effector:target 40:1

CCN(CC)CCCC(C)Nc1ccnc2cc(Cl)ccc12 (stereo not shown) [chloroquine]
effect on peptide mediated MHC-1 (H-2D^b) upregulation (H-2D^b): inhibits this upregulation | effect on return of the Gal2 epitope to the cell surface (RMA-S cells): inhibited | effect on return of susceptibility to CTL killing (EL4 and RMA-S cells; pronase treated peptide-coated cells incubated at 37° C., data not shown): blocked

ASNENMETM [pep 9(PR8), NP366-374 of influenza A virus strain A/PR/8/34]
CTL response against pep 9(PR8)-coated RMA and EL4 cells (EL4 target cells; [2]): strong CTL response | killing of virus-infected target cells (EL4 target cells; [2]): not killed | lysis of pep 9(PR8)-coated EL4 cells by CTL depleted for CD8^+ T cells (EL4 target cells; FIG. 7a): failed to lyse | effect of depletion of CD4^+ T cells on cytolytic activity (EL4 target cells; FIG. 7a, pep 9(PR8)-coated target cells): did not affect the cytolytic activity | CTL response (EL4 target cells; immunization with 10 μg and 1 μg): less or even no CTL response | MHC restriction of peptide-induced cytotoxicity (EL4 target cells; mouse, in vivo): H-2D^b restricted | specificity of induced CTL (EL4 target cells; mouse, in vivo): preferentially killed their corresponding peptide-coated and virus-infected cells | EL4 target lysis (%) PR8-infected (EL4 target cells; [3]): 10.50% | EL4 target lysis (%) Untreated (EL4 target cells; [3]): 3.32% | EL4 target lysis (%) pep9(PR8)-coated (EL4 target cells; [3]): 15.54% | EL4 target lysis (%) PR8-infected (EL4 target cells; [4]): 12.43% | EL4 target lysis (%) Untreated (EL4 target cells; [4]): 4.08% | EL4 target lysis (%) pep9(PR8)-coated (EL4 target cells; [4]): 16.44% | EL4 target lysis (%) PR8-infected (EL4 target cells; [5]): 5.54% | EL4 target lysis (%) Untreated (EL4 target cells; [5]): 2.66% | EL4 target lysis (%) pep9(PR8)-coated (EL4 target cells; [5]): 9.28% | EL4 target lysis (%) PR8-infected (EL4 target cells; [6]): 6.88% | EL4 target lysis (%) Untreated (EL4 target cells; [6]): 3.34% | EL4 target lysis (%) pep9(PR8)-coated (EL4 target cells; [6]): 11.85% | EL4 target lysis (%) PR8-infected (EL4 target cells; [7]): 23.75% | EL4 target lysis (%) Untreated (EL4 target cells; [7]): 4.14% | EL4 target lysis (%) pep9(PR8)-coated (EL4 target cells; [7]): 34.60% | EL4 target lysis (%) PR8-infected (EL4 target cells; [8]): 31.19% | EL4 target lysis (%) Untreated (EL4 target cells; [8]): 5.74% | EL4 target lysis (%) pep9(PR8)-coated (EL4 target cells; [8]): 45.52% | EL4 target lysis (%) PR8-infected (EL4 target cells; [9]): 13.98% | EL4 target lysis (%) Untreated (EL4 target cells; [9]): 4.19% | EL4 target lysis (%) pep9(PR8)-coated (EL4 target cells; [9]): 22.09% | EL4 target lysis (%) PR8-infected (EL4 target cells; [10]): 15.04% | EL4 target lysis (%) Untreated (EL4 target cells; [10]): 5.63% | EL4 target lysis (%) pep9(PR8)-coated (EL4 target cells; [10]): 23.54% | EL4 target lysis (%) PR8-infected (EL4 target cells; [11]): 30.07% | EL4 target lysis (%) Untreated (EL4 target cells; [11]): 0.51% | EL4 target lysis (%) pep9(PR8)-coated (EL4 target cells; [11]): 50.73% | EL4 target lysis (%) PR8-infected (EL4 target cells; [12]): 30.76% | EL4 target lysis (%) Untreated (EL4 target cells; [12]): 0.12% | EL4 target lysis (%) pep9(PR8)-coated (EL4 target cells; [12]): 59.42% | EL4 target lysis (%) PR8-infected (EL4 target cells; [13]): 8.50% | EL4 target lysis (%) Untreated (EL4 target cells; [13]): 4.21% | EL4 target lysis (%) pep9(PR8)-coated (EL4 target cells; [13]): 34.73% | EL4 target lysis (%) PR8-infected (EL4 target cells; [14]): 7.00% | EL4 target lysis (%) Untreated (EL4 target cells; [14]): 4.61% | EL4 target lysis (%) pep9(PR8)-coated (EL4 target cells; [14]): 43.68% | CTL activity at day 30 after priming [1]: lower level of CTL activity could still be detected | time of peak CTL activity after the immunization ([1]; restimulated with 5 μM, effector:target 60:1): 7 days | killing of peptide treated RMA-S and EL-4 target cells by influenza A (PR8) specific CTL (EL4 and RMA-S cells; FIG. 11): strongly killed
